{"source": "patent US20180251431A1", "about": "(VERTEX PHARMACEUTICALS INCORPORATED, priority 2016, published 2018)", "key": {"ABCD1 KO mice [1]": {"system": "ABCD1 KO mice", "experiment": "Reduction of C26:0 LPC, SC-VLCFA and acyl carnitine levels in ABCD1 KO brains", "format": "in vivo, mouse", "conditions": "for reduction of brain C26:0 acyl carnitine levels: after 2 months of treatment", "experimental": "To examine the effect of Compound 87 on VLCFA levels in the CNS, female ABCD1 KO mice were treated with vehicle, 1 or 10 mg/kg PO QD for 2 weeks (14 days; n=5 per group), 1 month (28 days; n=5 per group), 2 months (56 days; n=6 per group), or 3 months (84 days; n=6 per group). The brain samples used in this study were from the same mice used in the long term dosing study in ABCD1 knock-out mice and WT mice (see Example 2.3). Brain tissue samples were collected after 2, 4, 8, or 12 weeks of dosing with vehicle or Compound 87. Brain samples were frozen at −70° C. and were analyzed for VLCFA (LPC, SC-VLCFA, acyl-carnitines) via liquid chromatography-mass spectrometry (LCMS) as described below. The vehicle used was 2% TPGS and Compound 87 doses were prepared in 2% TPGS.\nLevels of VLCFA, including straight chain very long chain fatty acids (SC-VLCFA), acyl carnitines, and lysophosphatidylcholines (LPC), in the brain were examined. SC-VLCFA were expected to be rapidly incorporated into other forms and acyl carnitines were expected to be rapidly degraded, contributing to a short expected half-life for these forms. LPC was expected to integrate into membranes, contributing to a longer expected half-life.\nBrain Sample Preparation:\n(i) 3 volumes of MeOH was add to each sample; (ii) homogenized tissue samples with FastPrep (FP120) at 4.5 intensity for 25 seconds; and (iii) aliquoted tissue lysates.\nLPC and Acylcarnitine Extraction with CHCl3/MeOH Liquid-Liquid Extraction:\nAdded 1 mL MeOH, then added 1 mL […] to the brain tissue lysates; incubated 30 minutes at room temperature; added 1 mL CHCl3 and 0.75 mL H2O; incubated 30 minutes; centrifuged max for 10 minutes; transferred lower layer to new vials; organic phase was dried using Turbo-Vac. The resulting residue was re-constituted with MeOH.\n3-Step Chemical Derivatization of SC-VLCFA Using Dimethylaminoethanol (VLCFA-DMAE):\n(i) added oxalyl chloride (2 mol/l oxalyl chloride in CH2Cl2, 200 ul) to the dried mixture, incubated at 65° C. for 5 minutes; (ii) added 60 uL dimethylaminoethanol, incubated at 25° C. for 5 minutes and dried down; (iii) added 100 uL methyl iodide, incubated briefly and dried down. The resulting residue was re-constituted with ethanol (EtOH).\nLCMSMS Detection of VLCFA (e.g., Spingomyelin (SM) and LPC and Derivatized VLCFA (FA-DMAE)):\nLPC Detection: • Column: Discovery C18, 2.1×20 mm • Phase A: 50% MeOH/5 mM AF; Phase B: 2-propanol • MS: 4000 Qtrap operated in ESI MRM positive mode\nFA-DMAE Detection: • Column: Synergi Polar RP, 2×150 mm • Phase A: H2O/0.1% FA; Phase B: ACN/0.1% FA • MS: 4000 Qtrap operated in ESI MRM positive mode"}, "ABCD1 KO mice [2]": {"system": "ABCD1 KO mice", "experiment": "Thermal pain sensitivity (Plantar test, Hargreaves apparatus) in ABCD1 KO mice", "format": "in vivo, mouse", "conditions": "male ABCD1 KO mice", "experimental": "ABCD1 KO mice were used as a functional model of AMN. ABCD1 KO mice display a progressive loss of sensitivity to painful thermal stimulus similar to symptoms observed in AMN patients such as decreased sensitivity to touch. To determine the effect of Compound 87 on thermal sensitivity, Compound 87 was dosed PO QD either prophylactically or therapeutically to determine whether ABCD1 KO mice have different latency thresholds for the Plantar test (Hargreaves apparatus) response compared to wild-type (WT) mice. For the prophylactic study, mice were tested beginning at 10 months of age (before the loss of pain sensitivity) using doses of either 5 or 20 mg/kg. For the therapeutic study, mice were tested beginning at 18 months of age, after there was already a significant loss of pain sensitivity, using doses of either 32 or 64 mg/kg. […] The Plantar test (using a Hargreaves apparatus) was used and measured the latency to respond to a thermal stimulus using the following protocol. An individual mouse was placed into an individual compartment with a glass floor for about 10-15 minutes until they were settled. Each individual mouse was given three trials with an infrared source on each hind paw (alternated hind paws each time, and waited 5 minutes between each trial). […] When a response was observed (paw withdrawal), the key/button was released and the latency to respond was recorded (in seconds)."}, "[3]": {"conditions": "1 mg/kg or 10 mg/kg PO QD, after 2 weeks of dosing"}}}
{"compound": "O=C(Nc1ccn(-c2ccnc(F)c2)n1)C1(c2ccccc2F)CC1", "note": "[Compound 87, 1-(2-fluorophenyl)-N-[1-(2-fluoro-4-pyridyl)pyrazol-3-yl]cyclopropanecarboxamide]", "values": [{"measurement": "reduction in brain C26:0 LPC", "setting": "ABCD1 KO mice [1]; 1 mg/kg PO QD, 2 months", "result": "~30", "unit": "%"}, {"measurement": "reduction of brain C26:0 SC-VLCFA levels", "setting": "ABCD1 KO mice [1]; 1 mg/kg PO QD, 2 months", "result": "about 30%"}, {"measurement": "reduction in brain C26:0 LPC", "setting": "ABCD1 KO mice [1]; 1 mg/kg PO QD, 3 months", "result": "~30", "unit": "%"}, {"measurement": "reduction of brain C26:0 SC-VLCFA levels", "setting": "ABCD1 KO mice [1]; 1 mg/kg PO QD, 3 months", "result": "about 50%"}, {"measurement": "reduction of brain C26:0 acyl carnitine levels", "setting": "ABCD1 KO mice [1]; 1 mg/kg PO QD", "result": "~50", "unit": "%"}, {"measurement": "brain C24:0 LPC levels (normalized by C16:0 LPC levels)", "setting": "ABCD1 KO mice [1]; 1 mg/kg or 10 mg/kg PO QD, 3 months", "result": "significant reduction"}, {"measurement": "brain LPC levels", "setting": "ABCD1 KO mice [1]; [3]", "result": "no changes"}, {"measurement": "brain SC-VLCFA levels", "setting": "ABCD1 KO mice [1]; [3]", "result": "no changes"}, {"measurement": "reduction in brain C26:0 LPC", "setting": "ABCD1 KO mice [1]; 10 mg/kg PO QD, 2 months", "result": "~40", "unit": "%"}, {"measurement": "reduction of brain C26:0 SC-VLCFA levels", "setting": "ABCD1 KO mice [1]; 10 mg/kg PO QD, 2 months", "result": "about 55%"}, {"measurement": "reduction of brain C26:0 acyl carnitine levels", "setting": "ABCD1 KO mice [1]; 10 mg/kg PO QD", "result": "~70", "unit": "%"}, {"measurement": "brain C24:0 SC-VLCFA level", "setting": "ABCD1 KO mice [1]; 10 mg/kg PO QD, after 3 months of dosing", "result": "significant reduction"}, {"measurement": "thermal pain sensitivity (response latency, Plantar test), prophylactic treatment", "setting": "ABCD1 KO mice [2]; 5 or 20 mg/kg PO QD, dosing initiated at 10 months of age, 6 month period", "result": "reduced the loss of thermal pain sensitivity"}, {"measurement": "thermal pain sensitivity (response latency, Plantar test), therapeutic treatment", "setting": "ABCD1 KO mice [2]; 32 or 64 mg/kg PO QD, dosing initiated at 18 months of age", "result": "reversed the loss of thermal pain sensitivity"}]}
